The results in this text go back to US20260223843A1, “I[…]” (FYTEKO SA, priority 2022, published 2026).

Structures are written as SMILES.

What all share (type): in vivo
The test system of series [1] is brown plant hopper (Nilaparvata lugens). The series can be described thus: Control of the brown plant hopper in rice plants (spray, mortality). The note with it: mortality of hopper larvae on sprayed rice plants; mg/L: Polyferulate 48, Chlorantraniliprole 45, Cyantraniliprole 135, combinations 48 + 45 and 48 + 135. As for the experimental part:
To determine the efficacy of insecticides on the mortality percentage of brown planthopper an experiment was conducted in the laboratory. The seedlings of 30-40 days old rice plant (Oryza sativa) were transplanted in plastic pot. The rice plants were grown in plastic pots with Mylar film cage and kept in the laboratory. Rice plants are sprayed with the preparation of the active compound at the desired concentration and are infested with larvae of the brown plant hopper (Nilaparvata lugens) while the rice leaves are still moist. Ten brown planthopper were released in each pot that was selected randomly.
The brown planthopper (BPH), Nilaparvata lugens (Hemiptera: Delphacidae) is a planthopper species that feeds on rice plants (Oryza sativa L.). These insects are among the most important pests of rice, which is the major staple crop for about half the world's population. After 3 days, the mortality in percentage is determined. 100% means that all the hopper larvae have been killed; 0% means that none of the hopper larvae have been killed.

Series [2] in a line: Insecticide uptake by leaves of rice plants (LC-MS/MS). The note with it: chlorantraniliprole in rice leaves 72 h after smearing 5 mL; chlorantraniliprole 100 μg/mL, polyferulate 25 μg/mL where present; three replicates. As for the experimental part: Rice plants were cultivated in a plant growth chamber with a 12 h day and high intensity lighting. The rice leaves near the roots were smeared with 5 mL of solution containing chlorantraniliprole (100 μg·mL−1) or chlorantraniliprole (100 μg·mL−1) and polyferulate solution (25 μg·mL−1) and covered. When the droplets on the leaves were dried, the plastic was taken away. The rice leaves were harvested 72 h after treated. A sample of the rice leaves (5 g) was weighted and extracted with acetonitrile and the content of uptake chlorantraniliprole determinate by LC-MS/MS. Each experiment was repeated for three replicates.

Series [3] has as its system whitefly (Bemisia tabaci). The series can be described thus: Control of whitefly in cotton plants (translaminar efficacy). The note with it: 2nd instar nymphs on cotton leaf, adults counted, mg/L: Polyferulate 4, Spirotetramat 18.6, Imidacloprid 21.8, combinations 4 + 18.6 and 4 + 21.8. As for the experimental part:
Three-week-old cotton plants were defoliated so that only one true leaf remained. 20-30 female adults of B. tabaci were clipped to the underside of the leaf for egg deposition and removed after 16 h. The silverleaf whitefly (Bemisia tabaci, also informally referred to as the sweet potato whitefly) is one of several species of whitefly that are currently important agricultural pests.
Once the 2nd instar nymphs had settled the upper side of the leaf was sprayed using a TLC spraying device (Merck Inc.). Before spraying the number of nymphs was counted on each leaf. The application volume was 500 μL of tested insecticides solutions diluted in tap water. The final concentration of each component appears in the table. Translaminar efficacy was evaluated by counting adults 10 days after application.

Take `CNC(=O)c1cc(Cl)cc(C)c1NC(=O)c1cc(Br)nn1-c1ncccc1Cl` [Chlorantraniliprole]: the “Observed efficacy (%) 3 days after treatment” value in series [1] is recorded as 50%. For the same compound, the “Content of insecticide in the plant material” value in series [2] is 38.0 ± 0.3 µg/g.
Take `CNC(=O)c1cc(C#N)cc(C)c1NC(=O)c1cc(Br)nn1-c1ncccc1Cl` [Cyantraniliprole]: the “Observed efficacy (%) 3 days after treatment” value in series [1] is recorded as 30%.
Take `O=[N+]([O-])NC1=NCCN1Cc1ccc(Cl)nc1` [Imidacloprid]: the “Observed efficacy (%) 10 days after treatment” value in series [3] worked out at 45%.
With `CCOC(=O)OC1=C(c2cc(C)ccc2C)C(=O)N[C@]12CC[C@@H](OC)CC2` [Spirotetramat], the “Observed efficacy (%) 10 days after treatment” value in series [3] came to 75%.
